Test results: patent US11147272B2, “Pyridone compounds and agricultural and horticultural fungicides comprising the same as active ingredients” (MITSUI CHEMICALS AGRO, INC., priority 2017, dated 2021)

Legend:
Botrytis cinerea = experiment: Test Example B: Gray mold on tomato; details: for Test B control value class: Gray mold on tomato, class of control value
Puccinia recondita = experiment: Test Example E: Brown rust on wheat; type: in vivo; details: for Test E control value class: Brown rust on wheat, class of control value
[1] = test system: Blumeria graminis f. sp. hordei; experiment: Test Example D: Powdery mildew on barley; details: Powdery mildew on barley; class of control value
Alternaia brassicicola = experiment: Test Example C: Alternaria sooty spot on cabbage; type: in vivo; details: for Test C control value class: Alternaria sooty spot on cabbage, class of control value; for Test C control value: 250 ppm drug solution sprayed on test plant
Description: Seeds of a test plant (cabbage variety: Shikidori) were planted and cultivated until the cotyledons extended.
<Control Value> Control value=100{1−(n/3)}

Phytophthora infestans = experiment: whole plant or invertebrate; type: in vivo; details: for Test F control value class: Late blight on tomato, class of control value; for Test F control value: 250 ppm drug solution sprayed on test plant
[2] = test system: Colletotrichum orbiculare; experiment: Test Example H: Anthracnose on cucumber; details: for Test H control value class: Anthracnose on cucumber (Sagami Hanjiro), 250 ppm spray, 2.5 ml/pot, assessed 6 to 10 days after inoculation; for Test H control value: 250 ppm drug solution sprayed (2.5 ml/pot), cucumber Sagami Hanjiro, 6 to 10 days after inoculation
Plasmopara viticola = experiment: Test Example G: Downy mildew on vine; details: for Test G control value class: Downy mildew on vine (Neomuscat), 250 ppm spray, 2.5 ml/pot, assessed 7 to 10 days after inoculation; for Test G control value: 250 ppm drug solution sprayed (2.5 ml/pot), grape Neomuscat, 7 to 10 days after inoculation
Magnaporthe grisea = experiment: whole plant or invertebrate; type: in vivo; details: for Test A control value class: Blast on rice, class of control value; for Test A control value: 250 ppm drug solution sprayed on test plant
[3] = 250 ppm drug solution sprayed on test plant

Row | Structure (SMILES) | Test B control value class (Botrytis cinerea) | Test E control value class (Puccinia recondita) | Test D control value class [1] | Test C control value class (Alternaia brassicicola) | Test F control value class (Phytophthora infestans) | Test H control value class [2] | Test G control value class (Plasmopara viticola) | Test A control value class (Magnaporthe grisea) | Test C control value (Alternaia brassicicola) | Test F control value (Phytophthora infestans) | Test H control value [2] | Test G control value (Plasmopara viticola) | Test A control value (Magnaporthe grisea) | Test B control value (Botrytis cinerea; [3]) | Test E control value (Puccinia recondita; [3])
1 | CCn1c(-c2c(F)cc(F)cc2F)c(C(C)(O)C(C)C)cc(Cl)c1=O (racemic) [compound 106] | H (more than 50% control value) | H (more than 50% control value) | H (more than 50% control value) | H (more than 50% control value) | H (more than 50% control value) | H (more than 50% control value) | H (more than 50% control value) | H (more than 50% control value) | – | – | – | – | – | – | –
2 | CCn1c(-c2c(F)cc(F)cc2F)c(C(C)(OC)C(C)C)cc(Cl)c1=O (racemic) [compound 107] | H (more than 50% control value) | H (more than 50% control value) | H (more than 50% control value) | H (more than 50% control value) | L (50% or less control value) | H (more than 50% control value) | H (more than 50% control value) | H (more than 50% control value) | – | – | – | – | – | – | –
3 | CCn1c(-c2c(F)cc(OC)cc2F)c(C(C)(O)C(C)C)cc(Cl)c1=O (racemic) [compound 108] | H (more than 50% control value) | H (more than 50% control value) | H (more than 50% control value) | H (more than 50% control value) | L (50% or less control value) | H (more than 50% control value) | H (more than 50% control value) | H (more than 50% control value) | – | – | – | – | – | – | –
4 | CCn1c(-c2c(F)cc(OC)cc2F)c(C(C)(OC)C(C)C)cc(Cl)c1=O (racemic) [compound 110] | H (more than 50% control value) | H (more than 50% control value) | H (more than 50% control value) | H (more than 50% control value) | L (50% or less control value) | H (more than 50% control value) | H (more than 50% control value) | H (more than 50% control value) | – | – | – | – | – | – | –
5 | CCn1c(-c2c(F)cc(F)cc2F)c(C(O)C(C)(C)C)cc(Cl)c1=O (racemic) [compound 163] | H (more than 50% control value) | H (more than 50% control value) | H (more than 50% control value) | H (more than 50% control value) | L (50% or less control value) | H (more than 50% control value) | H (more than 50% control value) | H (more than 50% control value) | – | – | – | – | – | – | –
6 | CCCc1ccc(=O)n(C)c1-c1ccc(OC)cc1C [compound 425] | – | – | – | – | – | – | – | – | L (50% or less control value) | L (50% or less control value) | H (more than 50% control value) | L (50% or less control value) | H (more than 50% control value) | – | –
7 | C=Cc1cc(Cl)c(=O)n(CC)c1-c1c(F)cc(F)cc1F [compound 517] | – | – | – | – | – | – | – | – | H (more than 50% control value) | L (50% or less control value) | H (more than 50% control value) | H (more than 50% control value) | L (50% or less control value) | – | –
8 | CCn1c(-c2c(F)cc(F)cc2F)c(C(C)OC)cc(Cl)c1=O (stereo not drawn) [compound 519] | – | – | – | – | – | – | – | – | H (more than 50% control value) | L (50% or less control value) | H (more than 50% control value) | H (more than 50% control value) | H (more than 50% control value) | H (more than 50% control value) | H (more than 50% control value)
